Laboratory results from patent US4526989A, “1,4-Bis (substituted-amino)-5,8-dihydroxy-anthraquinones and leuco bases thereof” (priority 1979, dated 1985).
Read-outs that look alike come from different tables or passages of the source.

Legend:
melanotic melanoma B16 = assay: Melanotic Melanoma B16 test; type: in vivo, C57BC/6 mice
Procedure: The animals used are C57BC/6 mice, all of the same sex, weighing a minimum of 17 g. and all within a 3-g. weight range. There are normally 10 animals per test group. A one-gram portion of melanotic melanoma B16 tumor is homogenized in 10 ml. of cold balanced salt solution and a 0.5-ml. aliquot of the homogenate is implanted intraperitoneally into each of the test mice. The test compounds are administered intraperitoneally on days one through 9 (relative to tumor inoculation) at various doses. The animals are weighed and survivors are recorded on a regular basis for 60 days. The median survival time and the ratio of survival time for treated (T)/control (C) animals are calculated. […] The criterion for efficacy is T/C×100≥125%.

[1] = test system: lymphocytic leukemia P388; assay: Lymphocytic leukemia P388 test (intraperitoneal administration); type: in vivo, DBA/2 mice
Procedure: The animals used are DBA/2 mice all of one sex, weighing a minimum of 17 g. and all within a 3 gram weight range. There are 5 or 6 animals per test group. The tumor transplant is by intraperitoneal injection of 0.1 ml. of dilute ascitic fluid containing 10^6 cells of lymphocytic leukemia P388. The test compounds are administered intraperitoneally on days one, 5 and 9 (relative to tumor inoculation) at various doses. The animals are weighed and survivors are recorded on a regular basis for 30 days. The median survival time and the ratio of survival time for treated (T)/control (C) animals are calculated.

[2] = 6 mg./kg. i.p., days 1 through 9
[3] = 12 mg./kg. i.p., days 1 through 9
[4] = 25 mg./kg. i.p., days 1 through 9
[5] = Mus musculus, ip, 6 mg./kg. i.p., days 1 through 9, efficacy ≥125%, read-out: T/C × 100
[6] = Mus musculus, ip, 12 mg./kg. i.p., days 1 through 9, efficacy ≥125%, read-out: T/C × 100
[7] = Mus musculus, ip, 25 mg./kg. i.p., days 1 through 9, efficacy ≥125%, read-out: T/C × 100
[8] = 25 mg./kg. i.p., days 1, 5 and 9
[9] = 50 mg./kg. i.p., days 1, 5 and 9
[10] = 100 mg./kg. i.p., days 1, 5 and 9
[11] = Mus musculus, P388, ip, 25 mg./kg. i.p., days 1, 5 and 9, efficacy ≥125%, read-out: T/C × 100
[12] = Mus musculus, P388, ip, 50 mg./kg. i.p., days 1, 5 and 9, efficacy ≥125%, read-out: T/C × 100
[13] = Mus musculus, P388, ip, 100 mg./kg. i.p., days 1, 5 and 9, efficacy ≥125%, read-out: T/C × 100
[14] = Mus musculus, P388, ip, read-out: T/C × 100

O=C1c2c(O)ccc(O)c2C(=O)c2c(NCCN3CCCC3)ccc(NCCN3CCCC3)c21 [1,4-Bis[2-(1-pyrrolidinyl)ethylamino]-5,8-dihydroxyanthraquinone]
Median Survival Time (melanotic melanoma B16; [2]): 22.0 days | Median Survival Time (melanotic melanoma B16; [3]): 22.0 days | Median Survival Time (melanotic melanoma B16; [4]): 24.5 days | response vs control in vivo at 6 mg/kg (melanotic melanoma B16; [5]): 137% | response vs control in vivo at 12 mg/kg (melanotic melanoma B16; [6]): 137% | response vs control in vivo at 25 mg/kg (melanotic melanoma B16; [7]): 153% | Median Survival Time ([1]; 12 mg./kg. i.p., days 1, 5 and 9): 18.0 days | Median Survival Time [1, 8]: 21.0 days | Median Survival Time [1, 9]: 23.0 days | Median Survival Time [1, 10]: 24.0 days | response vs control in vivo at 12 mg/kg ([1]; Mus musculus, P388, ip, 12 mg./kg. i.p., days 1, 5 and 9, efficacy ≥125%, read-out: T/C × 100): 164% | response vs control in vivo at 25 mg/kg [1, 11]: 191% | response vs control in vivo at 50 mg/kg [1, 12]: 209% | response vs control in vivo at 100 mg/kg [1, 13]: 218%

NCCNCCNc1ccc(NCCNCCN)c2c1C(=O)c1c(O)ccc(O)c1C2=O [1,4-Bis[2-(2-aminoethylamino)ethylamino]-5,8-dihydroxyanthraquinone]
Median Survival Time (melanotic melanoma B16; [2]): 20.0 days | Median Survival Time (melanotic melanoma B16; [3]): 22.0 days | Median Survival Time (melanotic melanoma B16; [4]): 22.5 days | Median Survival Time (melanotic melanoma B16; 50 mg./kg. i.p., days 1 through 9): 24.0 days | response vs control in vivo at 6 mg/kg (melanotic melanoma B16; [5]): 125% | response vs control in vivo at 12 mg/kg (melanotic melanoma B16; [6]): 138% | response vs control in vivo at 25 mg/kg (melanotic melanoma B16; [7]): 141% | response vs control in vivo at 50 mg/kg (melanotic melanoma B16; Mus musculus, ip, 50 mg./kg. i.p., days 1 through 9, efficacy ≥125%, read-out: T/C × 100): 150% | Median Survival Time [1, 8]: 13.0 days | Median Survival Time [1, 9]: 14.0 days | Median Survival Time [1, 10]: 16.0 days | Median Survival Time ([1]; 200 mg./kg. i.p., days 1, 5 and 9): 17.0 days | response vs control in vivo at 25 mg/kg [1, 11]: 124% | response vs control in vivo at 50 mg/kg [1, 12]: 133% | response vs control in vivo at 100 mg/kg [1, 13]: 152% | response vs control in vivo at 200 mg/kg ([1]; Mus musculus, P388, ip, 200 mg./kg. i.p., days 1, 5 and 9, efficacy ≥125%, read-out: T/C × 100): 162%

Cl.Cl.O=C1c2c(O)ccc(O)c2C(=O)c2c(NCCNCCO)ccc(NCCNCCO)c21 [1,4-Bis[2-(2-hydroxyethylamino)ethylamino]-5,8-dihydroxyanthraquinone Dihydrochloride]
Median Survival Time (melanotic melanoma B16; 0.3 mg./kg. i.p., days 1 through 9): 34.0 days | Median Survival Time (melanotic melanoma B16; 0.7 mg./kg. i.p., days 1 through 9): > 34.0 days | Median Survival Time (melanotic melanoma B16; 1.5 mg./kg. i.p., days 1 through 9): > 34.0 days | Median Survival Time (melanotic melanoma B16; 3 mg./kg. i.p., days 1 through 9): > 28.5 days | Median Survival Time (melanotic melanoma B16; [2]): 15.0 days | Median Survival Time (melanotic melanoma B16; [3]): 11.0 days | response vs control in vivo at 6 mg/kg (melanotic melanoma B16; Mus musculus, ip, read-out: T/C × 100): 100% | response vs control in vivo at 0.3 mg/kg (melanotic melanoma B16; Mus musculus, ip, 0.3 mg./kg. i.p., days 1 through 9, efficacy ≥125%, read-out: T/C × 100): 227% | response vs control in vivo at 0.7 mg/kg (melanotic melanoma B16; Mus musculus, ip, 0.7 mg./kg. i.p., days 1 through 9, efficacy ≥125%, read-out: T/C × 100): > 227% | response vs control in vivo at 1.5 mg/kg (melanotic melanoma B16; Mus musculus, ip, 1.5 mg./kg. i.p., days 1 through 9, efficacy ≥125%, read-out: T/C × 100): > 227% | response vs control in vivo at 3 mg/kg (melanotic melanoma B16; Mus musculus, ip, 3 mg./kg. i.p., days 1 through 9, efficacy ≥125%, read-out: T/C × 100): > 190% | response vs control in vivo at 12 mg/kg (melanotic melanoma B16; [6]): 73% | Median Survival Time ([1]; 0.04 mg./kg. i.p., days 1, 5 and 9): 20.0 days | Median Survival Time ([1]; 0.09 mg./kg. i.p., days 1, 5 and 9): 21.0 days | Median Survival Time ([1]; 0.19 mg./kg. i.p., days 1, 5 and 9): 25.0 days | Median Survival Time ([1]; 0.39 mg./kg. i.p., days 1, 5 and 9): 27.0 days | Median Survival Time ([1]; 0.78 mg./kg. i.p., days 1, 5 and 9): > 29.0 days | Median Survival Time ([1]; 1.5 mg./kg. i.p., days 1, 5 and 9): > 29.0 days | Median Survival Time ([1]; 3.1 mg./kg. i.p., days 1, 5 and 9): 22.0 days | Median Survival Time ([1]; 6.2 mg./kg. i.p., days 1, 5 and 9): 20.0 days | Median Survival Time ([1]; 12.5 mg./kg. i.p., days 1, 5 and 9): 13.0 days | response vs control in vivo at 0.04 mg/kg [1, 14]: 200% | response vs control in vivo at 0.19 mg/kg [1, 14]: 250% | response vs control in vivo at 6.2 mg/kg [1, 14]: 200% | response vs control in vivo at 0.09 mg/kg ([1]; Mus musculus, P388, ip, 0.09 mg./kg. i.p., days 1, 5 and 9, efficacy ≥125%, read-out: T/C × 100): 210% | response vs control in vivo at 0.39 mg/kg ([1]; Mus musculus, P388, ip, 0.39 mg./kg. i.p., days 1, 5 and 9, efficacy ≥125%, read-out: T/C × 100): 270% | response vs control in vivo at 0.78 mg/kg ([1]; Mus musculus, P388, ip, 0.78 mg./kg. i.p., days 1, 5 and 9, efficacy ≥125%, read-out: T/C × 100): > 290% | response vs control in vivo at 1.5 mg/kg ([1]; Mus musculus, P388, ip, 1.5 mg./kg. i.p., days 1, 5 and 9, efficacy ≥125%, read-out: T/C × 100): > 290% | response vs control in vivo at 3.1 mg/kg ([1]; Mus musculus, P388, ip, 3.1 mg./kg. i.p., days 1, 5 and 9, efficacy ≥125%, read-out: T/C × 100): 220% | response vs control in vivo at 12.5 mg/kg ([1]; Mus musculus, P388, ip, 12.5 mg./kg. i.p., days 1, 5 and 9, efficacy ≥125%, read-out: T/C × 100): 130%
